Reference: ChEMBL document CHEMBL1135873, “Neuroprotection against ischemic brain injury conferred by a novel nitrate ester” (Bioorg Med Chem Lett, 2002)
pEC50: −log10 of the molar value.

Species on record: Rattus norvegicus
Test: Effective concentration for relaxation of isolated rat aortic strips, submaximally contracted with phenylephrine at 0.1 uM was determined
Type: functional
Conditions: Aorta

`O=[N+]([O-])OCC(CO[N+](=O)[O-])O[N+](=O)[O-]` [NITROGLYCERIN] was tested, and the pEC50 was 5.72.
